Measured values reported in patent US10208019B2, “GLP-1 receptor agonists and uses thereof” (Pfizer Inc., priority 2016, dated 2019).

Columns and labels:
human GLP-1R [1] = target: human GLP-1R (Homo sapiens, UniProt P43220, G168S); experiment: CHO GLP-1R Clone H6—Assay 1: HTRF cAMP cell-based functional agonist assay (high GLP-1R density); settings: for EC50: read-out: Assay 1 EC50, CHO GLP-1R Clone H6, cAMP HTRF, geometric mean; for Emax: read-out: Assay 1 Emax (%), CHO GLP-1R Clone H6
human GLP-1R [2] = target: human GLP-1R (Homo sapiens (Human), UniProt P43220, L260F); experiment: CHO GLP-1R Clone C6—Assay 2: HTRF cAMP cell-based functional agonist assay (low GLP-1R density); settings: for EC50: CHO GLP-1R Clone C6, cAMP HTRF, geometric mean; for Emax: read-out: Assay 2 Emax (%)
Protocol: GLP-1R-mediated agonist activity was determined with a cell-based functional assay utilizing an HTRF (Homogeneous Time-Resolved Fluorescence) cAMP detection kit (cAMP HI Range Assay Kit; Cis Bio cat #62AM6PEJ) that measures cAMP levels in the cell. The method is a competitive immunoassay between native cAMP produced by the cells and exogenous cAMP labeled with the dye d2. The tracer binding is visualized by a mAb anti-cAMP labeled with Cryptate. The specific signal (i.e. energy transfer) is inversely proportional to the concentration of cAMP in either a standard or an experimental sample.
The human GLP-1R coding sequence (NCBI Reference Sequence NP_002053.3, including naturally-occurring variant Leu260Phe) was subcloned into pcDNA5-FRT-TO and a clonal CHO cell line stably expressing a low receptor density was isolated using the Flp-In™ T-Rex™ System, as described by the manufacturer (ThermoFisher).
Cells were removed from cryopreservation, re-suspended in 40 mL of Dulbecco's Phosphate Buffered Saline (DPBS-Lonza Cat #17-512Q) and centrifuged at 800×g for 5 min at 22° C. The DPBS was aspirated, and the cell pellet was re-suspended in 10 mL of complete growth medium (DMEM:F12 1:1 Mixture with HEPES, L-Gln, 500 mL (DMEM/F12 Lonza Cat #12-719F), 10% heat inactivated fetal bovine serum (Gibco Cat #16140-071), 5 mL of 100× Pen-Strep (Gibco Cat #15140-122), 5 mL of 100× L-Glutamine (Gibco Cat #25030-081), 700 μg/mL Hygromycin (Invitrogen Cat #10687010) and 15 μg/mL Blasticidin (Gibco Cat #R21001). A 1 mL sample of the cell suspension in growth media was counted on a Becton Dickinson ViCell to determine cell viability and cell count per mL. The remaining cell suspension was then adjusted with growth media to deliver 1600 viable cells per well using a Matrix Combi Multidrop reagent dispenser, and the cells were dispensed into a white 384 well tissue culture treated assay plate (Corning 3570). The assay plate was then incubated for 48 h at 37° C. in a humidified environment (95% O2, 5% CO2)
Varying concentrations of each compound to be tested (in DMSO) were diluted in assay buffer [HBSS with Calcium/Magnesium (Lonza/BioWhittaker cat #10-527F)/0.1% BSA (Sigma Aldrich cat #A7409-1L)/20 mM HEPES (Lonza/BioWhittaker cat #17-737E)] containing 100 μM 3-isobutyl-1-methylxanthin (IBMX; Sigma cat #15879). The final DMSO concentration in the compound/assay buffer mixture is 1%.
After 48 h, the growth media was removed from the assay plate wells, and the cells were treated with 20 μL of the serially diluted compound in assay buffer for 30 min at 37° C. in a humidified environment (95% O2, 5% CO2). Following the 30 min incubation, 10 μL of labeled d2 cAMP and 10 μL of anti-cAMP antibody (both diluted 1:20 in cell lysis buffer; as described in the manufacturer's assay protocol) were added to each well of the assay plate. The plates were then incubated at room temperature and after 60 minutes, changes in the HTRF signal were read with an Envision 2104 multi-label plate reader using excitation of 330 nm and emissions of 615 and 665 nm. Raw data were converted to nM cAMP by interpolation from a cAMP standard curve (as described in the manufacturer's assay protocol) and the percent effect was determined relative to a saturating concentration of the full agonist GLP-1 (1 μM) included on each plate. EC50 determinations were made from agonist dose response curves analyzed with a curve fitting program using a 4-parameter logistic dose response equation.

[3] = relative to saturating concentration of full agonist GLP-1 (1 μM), arithmetic mean
[4] = CHO GLP-1R Clone C6, relative to saturating concentration of full agonist GLP-1 (1 μM), arithmetic mean

human GLP-1R (Homo sapiens (Human), UniProt P43220, L260F), sequence (P43220 24-463 L260F): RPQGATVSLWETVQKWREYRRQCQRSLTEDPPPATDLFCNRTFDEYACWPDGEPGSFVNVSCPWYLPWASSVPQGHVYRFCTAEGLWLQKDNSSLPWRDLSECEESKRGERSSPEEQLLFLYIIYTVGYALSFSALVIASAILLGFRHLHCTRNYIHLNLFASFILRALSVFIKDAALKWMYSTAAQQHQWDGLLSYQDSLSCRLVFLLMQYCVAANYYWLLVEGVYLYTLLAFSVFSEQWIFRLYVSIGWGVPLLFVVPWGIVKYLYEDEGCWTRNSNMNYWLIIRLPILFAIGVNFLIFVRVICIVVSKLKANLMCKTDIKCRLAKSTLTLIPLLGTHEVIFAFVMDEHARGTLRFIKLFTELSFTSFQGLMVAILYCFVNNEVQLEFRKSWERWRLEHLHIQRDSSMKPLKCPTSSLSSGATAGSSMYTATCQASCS
human GLP-1R (Homo sapiens, UniProt P43220, G168S), sequence (P43220 24-463 G168S limits assumed): as the sequence (P43220 24-463 L260F) above, with G145S, F237L counted along it

Compound | EC50 (human GLP-1R [1]) | Emax (human GLP-1R [1]; [3]) | EC50 (human GLP-1R [2]) | Emax (human GLP-1R [2]; [4]) | Assay 1 Emax (%) (human GLP-1R [1]; CHO GLP-1R Clone H6, relative to saturating concentration of full agonist GLP-1 (1 μM), arithmetic mean) | Assay 2 Emax (%) (human GLP-1R [2]; [4])
COCCn1c(CN2CCC(c3cccc(OCc4ccc(Cl)cc4F)n3)CC2)nc2ccc(C(=O)O)nc21 [Example 2A-17, 2-[(4-{6-[(4-chloro-2-fluorobenzyl)oxy]pyridin-2-yl}piperidin-1-yl)methyl]-3-(2-methoxyethyl)-3H-imidazo[4,5-b]pyridine-5-carboxylic acid] | 24 nM | 76% | 1200 nM | 94% |  | 
C[C@H]1CN(c2cccc(OCc3ccc(C#N)cc3F)n2)CCN1Cc1nc2ccc(C(=O)O)cc2n1CC1CCCO1 (single isomer, unassigned; diastereomer 1) [Example 14A-11] | 7 nM |  | 140 nM |  | 65% | 71%
COCCn1c(CN2CCC(c3ccc(F)c(OCc4ccc(Cl)cc4F)n3)CC2)nc2ccc(C(=O)O)cc21 [Example 1A-04, 2-[(4-{6-[(4-chloro-2-fluorobenzyl)oxy]-5-fluoropyridin-2-yl}piperidin-1-yl)methyl]-1-(2-methoxyethyl)-1H-benzimidazole-6-carboxylic acid] | 21 nM | 79% | 350 nM | 82% |  | 
COCCn1c(CN2CCC(c3cccc(OCc4ccc(Cl)cc4F)n3)CC2)nc2ncc(C(=O)O)nc21 [Example 2A-10, 2-[(4-{6-[(4-chloro-2-fluorobenzyl)oxy]pyridin-2-yl}piperidin-1-yl)methyl]-1-(2-methoxyethyl)-1H-imidazo[4,5-b]pyrazine-6-carboxylic acid] | 43 nM | 82% | 680 nM | 110% |  | 
O=C(O)c1ccc2nc(CN3CCC(c4cccc(OCc5ccc(Cl)cc5F)n4)CC3)n(C[C@@H]3CCO3)c2n1 [Example 2A-23, 2-[(4-{6-[(4-chloro-2-fluorobenzyl)oxy]pyridin-2-yl}piperidin-1-yl)methyl]-3-[(2S)-oxetan-2-ylmethyl]-3H-imidazo[4,5-b]pyridine-5-carboxylic acid] | 0.5 nM | 73% | 22 nM | 96% |  | 
Cn1nccc1Cn1c(CN2CCC(c3cccc(OCc4ccc(Cl)cc4F)n3)CC2)nc2ccc(C(=O)O)cc21 [Example 11A-21, 2-[(4-{6-[(4-chloro-2-fluorobenzyl)oxy]pyridin-2-yl}piperidin-1-yl)methyl]-1-[(1-methyl-1H-pyrazol-5-yl)methyl]-1H-benzimidazole-6-carboxylic acid] | 18 nM | 82% | 270 nM | 83% |  | 
CCn1nncc1Cn1c(CN2CCN(c3cccc(OCc4ccc(C#N)cc4F)n3)CC2)nc2ccc(C(=O)O)cc21 [Example 10A-62, 2-[(4-{6-[(4-cyano-2-fluorobenzyl)oxy]pyridin-2-yl}piperazin-1-yl)methyl]-1-[(1-ethyl-1H-1,2,3-triazol-5-yl)methyl]-1H-benzimidazole-6-carboxylic acid] | 2.9 nM | 96% | 28 nM | 97% |  | 
COCCn1c(CN2CCC(c3cccc(OCc4cc(F)c(Cl)cc4F)n3)CC2)nc2ccc(C(=O)O)cc21 [Example 8A-03, 2-((4-(6-((4-chloro-2,5-difluorobenzyl)oxy)pyridin-2-yl)piperidin-1-yl)methyl)-1-(2-methoxyethyl)-1H-benzo[d]imidazole-6-carboxylic acid] | 18 nM | 84% | 350 nM | 77% |  | 
C[C@H]1CN(c2cccc(OCc3ccc(C#N)cc3)n2)CCN1Cc1nc2ccc(C(=O)O)cc2n1CC1CCCO1 (single isomer, unassigned; diastereomer 2) [Example 14A-08] | 19 nM |  | 380 nM |  |  | 
O=C(O)c1ccc2nc(CN3CCN(c4cccc(OCc5ccc(Cl)cc5F)n4)CC3)n(C[C@@H]3CCO3)c2c1 [Example 10A-08, 2-[(4-{6-[(4-chloro-2-fluorobenzyl)oxy]pyridin-2-yl}piperazin-1-yl)methyl]-1-[(2S)-oxetan-2-ylmethyl]-1H-benzimidazole-6-carboxylic acid] | 0.55 nM | 77% | 9.2 nM | 94% |  | 
O=C(O)c1cc2c(cn1)nc(CN1CCC(c3cccc(OCc4ccc(Cl)cc4F)n3)CC1)n2C[C@@H]1CCO1 [Example 2A-05, 2-[(4-{6-[(4-chloro-2-fluorobenzyl)oxy]pyridin-2-yl}piperidin-1-yl)methyl]-1-[(2S)-oxetan-2-ylmethyl]-1H-imidazo[4,5-c]pyridine-6-carboxylic acid] | 6 nM | 73% | 150 nM | 84% |  | 
C[C@H]1CN(c2cccc(OCc3ccc(C#N)cc3F)n2)CCN1Cc1nc2ccc(C(=O)O)cc2n1C[C@@H]1CCO1 [Example 10A-47, 2-{[(2S)-4-{6-[(4-cyano-2-fluorobenzyl)oxy]pyridin-2-yl}-2-methylpiperazin-1-yl]methyl}-1-[(2S)-oxetan-2-ylmethyl]-1H-benzimidazole-6-carboxylic acid] | 0.3 nM | 80% | 4.4 nM | 95% |  | 
CC(F)(F)Cn1c(CN2CCC(c3cccc(OCc4ccc(Cl)cc4F)n3)CC2)nc2ccc(C(=O)O)cc21 [Example 11A-27, 2-[(4-{6-[(4-chloro-2-fluorobenzyl)oxy]pyridin-2-yl}piperidin-1-yl)methyl]-1-(2,2-difluoropropyl)-1H-benzimidazole-6-carboxylic acid] | 44 nM | 72% | 490 nM | 98% |  | 
O=C(O)c1ccc2nc(CN3CCC(c4cccc(OCc5ccc(Cl)cc5F)n4)CC3)n(Cc3nnc[nH]3)c2c1 [Example 11A-25, 2-[(4-{6-[(4-chloro-2-fluorobenzyl)oxy]pyridin-2-yl}piperidin-1-yl)methyl]-1-(4H-1,2,4-triazol-3-ylmethyl)-1H-benzimidazole-6-carboxylic acid] | 30 nM | 77% | 360 nM | 89% |  | 
COCCn1c(CN2CCC(c3cccc(OCc4ccc(C)cc4)n3)CC2)nc2ccc(C(=O)O)cc21 [Example 8A-01, Ammonium 2-((4-(6-((4-Methylbenzyl)oxy)pyridin-2-yl)piperidin-1-yl)methyl)-1-(2-methoxyethyl)-1H-benzo[d]imidazole-6-carboxylate] | 100 nM | 99% | 1100 nM | 90% |  | 
O=C(O)c1ccc2nc(CN3CCC(c4cccc(OCc5ccc(Cl)cc5F)n4)CC3)n(Cc3cn[nH]c3)c2c1 [Example 11A-15, 2-[(4-{6-[(4-chloro-2-fluorobenzyl)oxy]pyridin-2-yl}piperidin-1-yl)methyl]-1-(1H-pyrazol-4-ylmethyl)-1H-benzimidazole-6-carboxylic acid] | 9.4 nM | 69% | 94 nM | 92% |  | 
COCCn1c(CN2CCN(c3ccc(F)c(OCc4ccc(C#N)cc4)n3)C[C@@H]2C)nc2ccc(C(=O)O)cc21 [Example 1A-08, 2-{[(2S)-4-{6-[(4-cyanobenzyl)oxy]-5-fluoropyridin-2-yl}-2-methylpiperazin-1-yl]methyl}-1-(2-methoxyethyl)-1H-benzimidazole-6-carboxylic acid] | 7.1 nM | 81% | 120 nM | 85% |  | 
N#Cc1ccc(COc2cccc(C3CCN(Cc4nc5ccc(C(=O)O)nc5n4Cc4ncco4)CC3)n2)c(F)c1 [Example 2A-19, 2-[(4-{6-[(4-cyano-2-fluorobenzyl)oxy]pyridin-2-yl}piperidin-1-yl)methyl]-3-(1,3-oxazol-2-ylmethyl)-3H-imidazo[4,5-b]pyridine-5-carboxylic acid] | 7.9 nM | 80% | 150 nM | 100% |  | 
N#Cc1ccc(COc2cccc(C3CCN(Cc4nc5ccc(C(=O)O)nc5n4C[C@@H]4CCO4)CC3)n2)c(F)c1 [Example 6A-01, 2-[(4-{6-[(4-cyano-2-fluorobenzyl)oxy]pyridin-2-yl}piperidin-1-yl)methyl]-3-[(2S)-oxetan-2-ylmethyl]-3H-imidazo[4,5-b]pyridine-5-carboxylic acid] | 0.76 nM | 88% | 8.8 nM | 100% |  | 
CCn1cncc1Cn1c(CN2CCC(c3cccc(OCc4ccc(F)cc4F)n3)CC2)nc2ccc(C(=O)O)cc21 [Example 10A-32, 2-[(4-{6-[(2,4-difluorobenzyl)oxy]pyridin-2-yl}piperidin-1-yl)methyl]-1-[(1-ethyl-1H-imidazol-5-yl)methyl]-1H-benzimidazole-6-carboxylic acid] | 0.47 nM | 77% | 5 nM | 94% |  | 
C[C@H]1CN(c2cccc(OCc3ccc(C#N)cc3F)n2)CCN1Cc1nc2ccc(C(=O)O)nc2n1C[C@@H]1CCO1 [Example 10A-09, 2-{[(2S)-4-{6-[(4-cyano-2-fluorobenzyl)oxy]pyridin-2-yl}-2-methylpiperazin-1-yl]methyl}-3-[(2S)-oxetan-2-ylmethyl]-3H-imidazo[4,5-b]pyridine-5-carboxylic acid] | 0.99 nM | 95% | 10 nM | 120% |  | 
Cn1c(CN2CCC(c3cccc(OCc4ccc(Cl)cc4F)n3)CC2)nc2cc(F)c(C(=O)O)cc21 [Example 2A-09, 2-[(4-{6-[(4-chloro-2-fluorobenzyl)oxy]pyridin-2-yl}piperidin-1-yl)methyl]-5-fluoro-1-methyl-1H-benzimidazole-6-carboxylic acid] | 120 nM | 76% | 2200 nM | 83% |  | 
